From EP4603105A1, “PHARMACEUTICAL COMPOSITION CONTAINING CYCLIC COMPOUND HAVING SELECTIVE KRAS INHIBITORY EFFECT AGAINST HRAS AND NRAS” (CHUGAI SEIYAKU KABUSHIKI KAISHA, priority 2022, dated 2024)
pIC50: −log10 of the molar value. *1 amine or outer side, *2 acyl side, *3 side chain or, on linkers, in order; H or OH if unused. Where a SMILES comes first, the peptide text is derived from it. Bridges are numbered along the chain shown (N, C = ends). [ ]: non-standard residue; d: D form. The star is where a group is joined. hPhe(3-Cl-4-CF3) = N[C@@H](CCc1ccc(C(F)(F)F)c(Cl)c1)C(=O)O; X42 = Cc1ccc(C[C@@H](C(=O)[*:2])N(CCC(F)(F)F)[*:1])cc1; X28 = Cc1ccc(C[C@@H](C(=O)[*:2])N(CC2CCCCC2)[*:1])cc1; X32 = Cc1ccc(C[C@@H](C(=O)[*:2])N(CC2CCCC2)[*:1])cc1; X37 = Cc1ccc(C[C@@H](C(=O)[*:2])N(CCC(C)C)[*:1])cc1; X44 = Cc1ccc(C[C@@H](C(=O)[*:2])N(CC2CCC2)[*:1])cc1; X27 = COCCCN([C@@H](Cc1ccc(C)cc1)C(=O)[*:2])[*:1]; X46 = C=CCCN([C@@H](Cc1ccc(C)cc1)C(=O)[*:2])[*:1]; X14 = COCCN([C@@H](Cc1ccc(C)cc1)C(=O)[*:2])[*:1]; X50 = C=CCN([C@@H](Cc1ccc(C)cc1)C(=O)[*:2])[*:1]; NMeGly(cPent) = CN[C@H](C(=O)O)C1CCCC1; NMeD = CN[C@@H](CC(=O)O)C(=O)O; NMeL = CN[C@@H](CC(C)C)C(=O)O; Morpholide = C1CN(*)CCO1; NMeA = CN[C@@H](C)C(=O)O; Ac5c = NC1(C(=O)O)CCCC1; Aze = O=C(O)[C@@H]1CCN1; Sar = CNCC(=O)O

Assays:
[1] = system: human lung cancer strain NCI-H441; format: cell-based
Procedure, shortened: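 Signal came from […] measured per well once the reagent was added. Beforehand, cells were cultured at 37°C and 5% carbon dioxide on a compound series serially diluted in dimethyl sulfoxide.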

HRAS wild-type protein = HRAS wild-type protein (Homo sapiens, UniProt P01112); experiment: Binding to HRAS by surface plasmon resonance (SPR), KD and KD ratio to KRAS; conditions: ratio of KD for HRAS wild-type protein to KD for KRAS
Procedure, shortened: (§1)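 Recombinant RAS proteins bearing a biotinylated Avi tag and loaded with GDP served as the captured ligand, recaptured fresh every cycle. Binding responses were referenced to an uncoated surface and a buffer-only blank cycle. Dissociation constants were obtained by 1:1 model fitting at 30°C.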

[2] = biological target: GDP-bound NRAS wild-type protein (Homo sapiens, UniProt P01111); experiment: Binding to NRAS by surface plasmon resonance (SPR), KD and KD ratio to KRAS; conditions: ratio of KD for GDP-bound NRAS wild-type protein to KD for KRAS
Procedure, shortened: as §1

Sequence of HRAS wild-type protein (P01112 whole entry): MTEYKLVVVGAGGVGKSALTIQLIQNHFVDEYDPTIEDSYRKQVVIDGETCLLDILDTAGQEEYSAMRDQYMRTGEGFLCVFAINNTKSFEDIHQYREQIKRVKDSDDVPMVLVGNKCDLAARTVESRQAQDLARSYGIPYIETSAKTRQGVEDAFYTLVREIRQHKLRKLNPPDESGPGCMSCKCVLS
Sequence of GDP-bound NRAS wild-type protein (P01111 whole entry): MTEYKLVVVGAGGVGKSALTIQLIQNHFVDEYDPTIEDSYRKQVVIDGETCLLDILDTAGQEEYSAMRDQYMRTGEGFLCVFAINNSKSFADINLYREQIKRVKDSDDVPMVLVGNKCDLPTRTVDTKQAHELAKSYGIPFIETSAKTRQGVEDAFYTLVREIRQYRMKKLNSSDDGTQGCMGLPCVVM

| SMILES | pIC50 [1] | HRAS /KRAS (HRAS wild-type protein) | NRAS /KRAS [2] |
| --- | --- | --- | --- |
| CC[C@H](C)[C@@H]1NC(=O)[C@H](CC(C)C)N(C)C(=O)C[C@@H](C(=O)N2CCOCC2)N(C)C(=O)[C@H](C2CCCC2)N(C)C(=O)C2(CCCC2)NC(=O)[C@@H]2CCCN2C(=O)[C@H](CCc2ccc(C(F)(F)F)c(Cl)c2)NC(=O)CN(C)C(=O)[C@H](Cc2ccc(C)cc2)N(CC2CCCCC2)C(=O)[C@@H]2CCN2C(=O)[C@H](C)N(C)C1=O [PP0085] ([NMeL]I[NMeA][Aze][X28][Sar][hPhe(3-Cl-4-CF3)]P[Ac5c][NMeGly(cPent)][NMeD]-Morpholide; lactam N-11) | 6.96 | C (A compound having a KD ratio of 0.1 or more and less than 3 is denoted as C) | C (A compound having a KD ratio of 0.1 or more and less than 3 is denoted as C) |
| CC[C@H](C)[C@@H]1NC(=O)[C@H](CC(C)C)N(C)C(=O)C[C@@H](C(=O)N2CCOCC2)N(C)C(=O)[C@H](C2CCCC2)N(C)C(=O)C2(CCCC2)NC(=O)[C@@H]2CCCN2C(=O)[C@H](CCc2ccc(C(F)(F)F)c(Cl)c2)NC(=O)CN(C)C(=O)[C@H](Cc2ccc(C)cc2)N(CCC(C)C)C(=O)[C@@H]2CCN2C(=O)[C@H](C)N(C)C1=O [PP0086] ([NMeL]I[NMeA][Aze][X37][Sar][hPhe(3-Cl-4-CF3)]P[Ac5c][NMeGly(cPent)][NMeD]-Morpholide; lactam N-11) | 8.19 | B (a compound having 3 or more and less than 10 is denoted as B) | C (A compound having a KD ratio of 0.1 or more and less than 3 is denoted as C) |
| C=CCCN1C(=O)[C@@H]2CCN2C(=O)[C@H](C)N(C)C(=O)[C@H]([C@@H](C)CC)NC(=O)[C@H](CC(C)C)N(C)C(=O)C[C@@H](C(=O)N2CCOCC2)N(C)C(=O)[C@H](C2CCCC2)N(C)C(=O)C2(CCCC2)NC(=O)[C@@H]2CCCN2C(=O)[C@H](CCc2ccc(C(F)(F)F)c(Cl)c2)NC(=O)CN(C)C(=O)[C@@H]1Cc1ccc(C)cc1 [PP0089] ([NMeL]I[NMeA][Aze][X46][Sar][hPhe(3-Cl-4-CF3)]P[Ac5c][NMeGly(cPent)][NMeD]-Morpholide; lactam N-11) | 8.26 | B (a compound having 3 or more and less than 10 is denoted as B) | C (A compound having a KD ratio of 0.1 or more and less than 3 is denoted as C) |
| CC[C@H](C)[C@@H]1NC(=O)[C@H](CC(C)C)N(C)C(=O)C[C@@H](C(=O)N2CCOCC2)N(C)C(=O)[C@H](C2CCCC2)N(C)C(=O)C2(CCCC2)NC(=O)[C@@H]2CCCN2C(=O)[C@H](CCc2ccc(C(F)(F)F)c(Cl)c2)NC(=O)CN(C)C(=O)[C@H](Cc2ccc(C)cc2)N(CCC(F)(F)F)C(=O)[C@@H]2CCN2C(=O)[C@H](C)N(C)C1=O [PP0091] ([NMeL]I[NMeA][Aze][X42][Sar][hPhe(3-Cl-4-CF3)]P[Ac5c][NMeGly(cPent)][NMeD]-Morpholide; lactam N-11) | 8.39 | B (a compound having 3 or more and less than 10 is denoted as B) | C (A compound having a KD ratio of 0.1 or more and less than 3 is denoted as C) |
| CC[C@H](C)[C@@H]1NC(=O)[C@H](CC(C)C)N(C)C(=O)C[C@@H](C(=O)N2CCOCC2)N(C)C(=O)[C@H](C2CCCC2)N(C)C(=O)C2(CCCC2)NC(=O)[C@@H]2CCCN2C(=O)[C@H](CCc2ccc(C(F)(F)F)c(Cl)c2)NC(=O)CN(C)C(=O)[C@H](Cc2ccc(C)cc2)N(CCOC)C(=O)[C@@H]2CCN2C(=O)[C@H](C)N(C)C1=O [PP0092] ([NMeL]I[NMeA][Aze][X14][Sar][hPhe(3-Cl-4-CF3)]P[Ac5c][NMeGly(cPent)][NMeD]-Morpholide; lactam N-11) | 8.43 | C (A compound having a KD ratio of 0.1 or more and less than 3 is denoted as C) | C (A compound having a KD ratio of 0.1 or more and less than 3 is denoted as C) |
| CC[C@H](C)[C@@H]1NC(=O)[C@H](CC(C)C)N(C)C(=O)C[C@@H](C(=O)N2CCOCC2)N(C)C(=O)[C@H](C2CCCC2)N(C)C(=O)C2(CCCC2)NC(=O)[C@@H]2CCCN2C(=O)[C@H](CCc2ccc(C(F)(F)F)c(Cl)c2)NC(=O)CN(C)C(=O)[C@H](Cc2ccc(C)cc2)N(CCCOC)C(=O)[C@@H]2CCN2C(=O)[C@H](C)N(C)C1=O [PP0093] ([NMeL]I[NMeA][Aze][X27][Sar][hPhe(3-Cl-4-CF3)]P[Ac5c][NMeGly(cPent)][NMeD]-Morpholide; lactam N-11) | 8.66 | B (a compound having 3 or more and less than 10 is denoted as B) | C (A compound having a KD ratio of 0.1 or more and less than 3 is denoted as C) |
| CC[C@H](C)[C@@H]1NC(=O)[C@H](CC(C)C)N(C)C(=O)C[C@@H](C(=O)N2CCOCC2)N(C)C(=O)[C@H](C2CCCC2)N(C)C(=O)C2(CCCC2)NC(=O)[C@@H]2CCCN2C(=O)[C@H](CCc2ccc(C(F)(F)F)c(Cl)c2)NC(=O)CN(C)C(=O)[C@H](Cc2ccc(C)cc2)N(CC2CCC2)C(=O)CN(C)C(=O)CN(C)C1=O [PP0095] ([NMeL]I[Sar][Sar][X44][Sar][hPhe(3-Cl-4-CF3)]P[Ac5c][NMeGly(cPent)][NMeD]-Morpholide; lactam N-11) | 7.74 | C (A compound having a KD ratio of 0.1 or more and less than 3 is denoted as C) | C (A compound having a KD ratio of 0.1 or more and less than 3 is denoted as C) |
| CC[C@H](C)[C@@H]1NC(=O)[C@H](CC(C)C)N(C)C(=O)C[C@@H](C(=O)N2CCOCC2)N(C)C(=O)[C@H](C2CCCC2)N(C)C(=O)C2(CCCC2)NC(=O)[C@@H]2CCCN2C(=O)[C@H](CCc2ccc(C(F)(F)F)c(Cl)c2)NC(=O)CN(C)C(=O)[C@H](Cc2ccc(C)cc2)N(CC2CCCC2)C(=O)CN(C)C(=O)CN(C)C1=O [PP0096] ([NMeL]I[Sar][Sar][X32][Sar][hPhe(3-Cl-4-CF3)]P[Ac5c][NMeGly(cPent)][NMeD]-Morpholide; lactam N-11) | 7.16 | C (A compound having a KD ratio of 0.1 or more and less than 3 is denoted as C) | C (A compound having a KD ratio of 0.1 or more and less than 3 is denoted as C) |
| CC[C@H](C)[C@@H]1NC(=O)[C@H](CC(C)C)N(C)C(=O)C[C@@H](C(=O)N2CCOCC2)N(C)C(=O)[C@H](C2CCCC2)N(C)C(=O)C2(CCCC2)NC(=O)[C@@H]2CCCN2C(=O)[C@H](CCc2ccc(C(F)(F)F)c(Cl)c2)NC(=O)CN(C)C(=O)[C@H](Cc2ccc(C)cc2)N(CC2CCCCC2)C(=O)CN(C)C(=O)CN(C)C1=O [PP0097] ([NMeL]I[Sar][Sar][X28][Sar][hPhe(3-Cl-4-CF3)]P[Ac5c][NMeGly(cPent)][NMeD]-Morpholide; lactam N-11) | 6.62 | C (A compound having a KD ratio of 0.1 or more and less than 3 is denoted as C) | C (A compound having a KD ratio of 0.1 or more and less than 3 is denoted as C) |
| C=CCN1C(=O)CN(C)C(=O)CN(C)C(=O)[C@H]([C@@H](C)CC)NC(=O)[C@H](CC(C)C)N(C)C(=O)C[C@@H](C(=O)N2CCOCC2)N(C)C(=O)[C@H](C2CCCC2)N(C)C(=O)C2(CCCC2)NC(=O)[C@@H]2CCCN2C(=O)[C@H](CCc2ccc(C(F)(F)F)c(Cl)c2)NC(=O)CN(C)C(=O)[C@@H]1Cc1ccc(C)cc1 [PP0100] ([NMeL]I[Sar][Sar][X50][Sar][hPhe(3-Cl-4-CF3)]P[Ac5c][NMeGly(cPent)][NMeD]-Morpholide; lactam N-11) | 7.61 | C (A compound having a KD ratio of 0.1 or more and less than 3 is denoted as C) | B (a compound having 3 or more and less than 10 is denoted as B) |
| C=CCCN1C(=O)CN(C)C(=O)CN(C)C(=O)[C@H]([C@@H](C)CC)NC(=O)[C@H](CC(C)C)N(C)C(=O)C[C@@H](C(=O)N2CCOCC2)N(C)C(=O)[C@H](C2CCCC2)N(C)C(=O)C2(CCCC2)NC(=O)[C@@H]2CCCN2C(=O)[C@H](CCc2ccc(C(F)(F)F)c(Cl)c2)NC(=O)CN(C)C(=O)[C@@H]1Cc1ccc(C)cc1 [PP0101] ([NMeL]I[Sar][Sar][X46][Sar][hPhe(3-Cl-4-CF3)]P[Ac5c][NMeGly(cPent)][NMeD]-Morpholide; lactam N-11) | 7.98 | C (A compound having a KD ratio of 0.1 or more and less than 3 is denoted as C) | B (a compound having 3 or more and less than 10 is denoted as B) |
| CC[C@H](C)[C@@H]1NC(=O)[C@H](CC(C)C)N(C)C(=O)C[C@@H](C(=O)N2CCOCC2)N(C)C(=O)[C@H](C2CCCC2)N(C)C(=O)C2(CCCC2)NC(=O)[C@@H]2CCCN2C(=O)[C@H](CCc2ccc(C(F)(F)F)c(Cl)c2)NC(=O)CN(C)C(=O)[C@H](Cc2ccc(C)cc2)N(CCC(F)(F)F)C(=O)CN(C)C(=O)CN(C)C1=O [PP0103] ([NMeL]I[Sar][Sar][X42][Sar][hPhe(3-Cl-4-CF3)]P[Ac5c][NMeGly(cPent)][NMeD]-Morpholide; lactam N-11) | 8.09 | C (A compound having a KD ratio of 0.1 or more and less than 3 is denoted as C) | B (a compound having 3 or more and less than 10 is denoted as B) |
